Laboratory results reported in patent publication US20080318943A1, “Compounds and Uses Thereof - 848” (ASTRAZENECA AB, priority 2007, published 2008).

Tests used:
[1] = biological target: T1, GABAA2 receptors (α2, β3, γ2 receptor subunits transfected into Sf9 cells) (Homo sapiens, UniProt P18507+P47869); test: GABAA2 Binding Method ([3H]-Flunitrazepam displacement); details: [3H]-Flunitrazepam ~2 nM, α2β3γ2 Sf9 membranes, 1 hr at 4° C.
T1 construct: host or cells: Sf9 cells (membranes)
How it was run: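 Membranes from Sf9 cells expressing α2β3γ2 GABAA receptors incubated with ~2 nM (final) [3H]-flunitrazepam and test compound 1 h at 4 °C, then filtered on GF/B plates with cold-buffer washes. Flumazenil-defined controls; percent of control, IC50 and Ki calculated.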

GABAA receptor α1β2γ2 = biological target: T2, GABAA receptor α1β2γ2 (Homo sapiens, UniProt P14867+P18507); test: Two-electrode voltage-clamp potentiation of GABA EC10 current in Xenopus oocytes, GABAA1; format: cell-based; details: percentage potentiation of GABA EC10 current divided by that of diazepam
T2 construct: expressed in transfected cells; host or cells: Xenopus laevis oocytes injected with cRNA
How it was run: (§1)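 Human GABAA receptors expressed in Xenopus oocytes by cRNA injection (α:β:γ molar ratio ~1:1:10 for α1β2γ2, 1:1:1 for α2β3γ2), recorded 2-10 days later by two-electrode voltage clamp at −60 mV in ND-96, pH 7.5. Modulator preapplied 30 s before GABA at per-oocyte EC10. Peak-current percent potentiation over GABA alone, normalised to diazepam.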

GABAA receptor α2β3γ2 = biological target: T3, GABAA receptor α2β3γ2 (Homo sapiens, UniProt P18507+P47869); test: Two-electrode voltage-clamp potentiation of GABA EC10 current in Xenopus oocytes, GABAA2; format: cell-based; details: percentage potentiation of GABA EC10 current divided by that of diazepam
T3 construct: expressed in transfected cells; host or cells: Xenopus laevis oocytes injected with cRNA
How it was run: as §1

[2] = listed as 9-amino-6-fluoro-5-(2-fluoro-6-methoxyphenyl)-2-methyl-2,3-dihydro-1H-pyrrolo[3

T2 sequence (P14867 28-456): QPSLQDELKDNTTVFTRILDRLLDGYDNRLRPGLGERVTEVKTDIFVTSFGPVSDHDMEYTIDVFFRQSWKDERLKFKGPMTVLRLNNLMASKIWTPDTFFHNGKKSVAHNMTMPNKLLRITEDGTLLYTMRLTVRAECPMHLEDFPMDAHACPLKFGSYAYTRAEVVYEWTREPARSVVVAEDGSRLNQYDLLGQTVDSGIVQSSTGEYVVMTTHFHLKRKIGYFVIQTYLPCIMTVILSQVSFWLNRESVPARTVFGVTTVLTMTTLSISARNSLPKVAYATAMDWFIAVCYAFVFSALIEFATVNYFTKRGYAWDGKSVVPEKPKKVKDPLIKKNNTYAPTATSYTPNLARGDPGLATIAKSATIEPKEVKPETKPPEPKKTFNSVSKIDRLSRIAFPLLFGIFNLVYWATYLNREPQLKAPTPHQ
T2 sequence (P47870 25-512 partner limits assumed): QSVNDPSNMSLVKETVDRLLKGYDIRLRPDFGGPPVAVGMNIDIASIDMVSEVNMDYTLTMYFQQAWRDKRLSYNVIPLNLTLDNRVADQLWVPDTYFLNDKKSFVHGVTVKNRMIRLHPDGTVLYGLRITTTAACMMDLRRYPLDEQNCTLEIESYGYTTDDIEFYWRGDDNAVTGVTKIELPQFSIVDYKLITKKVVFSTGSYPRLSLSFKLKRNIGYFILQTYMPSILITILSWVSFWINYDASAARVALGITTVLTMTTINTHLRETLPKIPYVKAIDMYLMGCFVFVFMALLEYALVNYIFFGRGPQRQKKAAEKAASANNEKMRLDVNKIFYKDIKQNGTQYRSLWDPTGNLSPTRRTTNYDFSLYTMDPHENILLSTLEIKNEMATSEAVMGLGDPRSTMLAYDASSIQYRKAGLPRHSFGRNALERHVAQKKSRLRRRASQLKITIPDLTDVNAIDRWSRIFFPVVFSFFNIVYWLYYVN
T2 sequence (P18507 40-475): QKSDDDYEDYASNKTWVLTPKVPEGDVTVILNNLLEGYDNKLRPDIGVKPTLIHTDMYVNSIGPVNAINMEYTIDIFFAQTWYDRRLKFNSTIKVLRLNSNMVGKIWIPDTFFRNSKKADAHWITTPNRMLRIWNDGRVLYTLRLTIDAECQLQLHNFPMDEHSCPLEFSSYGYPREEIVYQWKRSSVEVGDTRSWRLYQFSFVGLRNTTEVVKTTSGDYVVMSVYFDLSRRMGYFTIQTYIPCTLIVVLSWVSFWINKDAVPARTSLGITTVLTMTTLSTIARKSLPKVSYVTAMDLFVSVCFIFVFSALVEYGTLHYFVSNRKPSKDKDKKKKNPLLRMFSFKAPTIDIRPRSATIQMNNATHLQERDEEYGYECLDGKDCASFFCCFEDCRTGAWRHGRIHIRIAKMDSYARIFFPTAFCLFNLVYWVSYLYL
T1 sequence (P47869 29-451): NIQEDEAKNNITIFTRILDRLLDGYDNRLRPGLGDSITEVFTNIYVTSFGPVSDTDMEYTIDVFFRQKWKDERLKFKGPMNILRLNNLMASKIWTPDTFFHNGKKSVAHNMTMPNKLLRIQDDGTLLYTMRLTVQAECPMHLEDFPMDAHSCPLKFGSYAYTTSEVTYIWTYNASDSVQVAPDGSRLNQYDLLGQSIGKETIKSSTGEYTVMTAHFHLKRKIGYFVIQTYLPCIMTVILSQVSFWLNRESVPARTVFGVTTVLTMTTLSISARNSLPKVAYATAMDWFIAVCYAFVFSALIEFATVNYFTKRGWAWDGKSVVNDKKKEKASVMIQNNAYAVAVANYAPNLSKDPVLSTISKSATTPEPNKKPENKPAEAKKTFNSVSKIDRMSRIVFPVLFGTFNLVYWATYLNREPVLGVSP
T1 sequence (P28472 26-473 partner): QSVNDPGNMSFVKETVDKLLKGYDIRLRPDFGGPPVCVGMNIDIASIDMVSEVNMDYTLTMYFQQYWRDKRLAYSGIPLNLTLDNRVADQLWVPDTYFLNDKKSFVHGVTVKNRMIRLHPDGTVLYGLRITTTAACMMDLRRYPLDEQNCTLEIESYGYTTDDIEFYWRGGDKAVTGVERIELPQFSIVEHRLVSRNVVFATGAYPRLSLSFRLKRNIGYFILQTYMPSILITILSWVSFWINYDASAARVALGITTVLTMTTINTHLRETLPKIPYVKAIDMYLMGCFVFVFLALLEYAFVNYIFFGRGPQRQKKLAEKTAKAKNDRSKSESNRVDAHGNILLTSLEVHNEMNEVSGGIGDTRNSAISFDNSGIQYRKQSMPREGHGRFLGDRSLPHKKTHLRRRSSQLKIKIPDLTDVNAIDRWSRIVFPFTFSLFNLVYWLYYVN
T1 sequence (P18507 40-475): as the sequence (P18507 40-475) above
T3 sequence (P47869 29-451): as the sequence (P47869 29-451) above
T3 sequence (P28472 26-473 partner): as the sequence (P28472 26-473 partner) above
T3 sequence (P18507 40-475): as the sequence (P18507 40-475) above

SMILES	Ki [1] [nM]	Relative Potentiation for GABAA1 (GABAA receptor α1β2γ2)	Relative Potentiation for GABAA2 (GABAA receptor α2β3γ2)	Relative Potentiation for GABAA1 (GABAA receptor α1β2γ2; [2])	Relative Potentiation for GABAA2 (GABAA receptor α2β3γ2; [2])
N#Cc1ccc(-c2cccc3c(N)c4c(nc23)CN(C2CCC2)C4=O)nc1 [6-(9-Amino-2-cyclobutyl-1-oxo-2,3-dihydro-1H-pyrrolo[3,4-b]quinolin-5-yl)-nicotinonitrile]	2.39	0.005	0.15		
CCCN1Cc2nc3c(-c4ccc(OC)cc4OC)cccc3c(N)c2C1=O [9-amino-5-(2,4-dimethoxyphenyl)-2-propyl-2,3-dihydro-1H-pyrrolo[3,4-b]quinolin-1-one]	49.8	0.25	0.31		
Cc1nn(C)cc1-c1cccc2c(N)c3c(nc12)CN(C1CCC1)C3=O [9-Amino-2-cyclobutyl-5-(1,3-dimethyl-1H-pyrazol-4-yl)-2,3-dihydropyrrolo[3,4-b]quinolin-1-one]	3.91	0.017	0.43		
COc1nnccc1-c1cccc2c(N)c3c(nc12)CN(C1CCC1)C3=O [9-Amino-2-cyclobutyl-5-(3-methoxypyridazin-4-yl)-2,3-dihydropyrrolo[3,4-b]quinolin-1-one]	4.73	0.082	0.43		
COc1cnccc1-c1c(F)ccc2c(N)c3c(nc12)CN(C1CCC1)C3=O [9-Amino-2-cyclobutyl-6-fluoro-5-(3-methoxypyridin-4-yl)-2,3-dihydropyrrolo[3,4-b]quinolin-1-one]	0.185	0.02	0.27		
COc1cccc(F)c1-c1c(F)ccc2c(N)c3c(nc12)CN(C)C3=O [9-Amino-6-fluoro-5-(2-fluoro-6-methoxyphenyl)-2-methyl-2,3-dihydropyrrolo[3,4-b]quinolin-1-one]	8.14	−0.02	0.088		
CCN1Cc2nc3c(-c4ccc(OC)cc4F)cccc3c(N)c2C1=O [9-amino-2-ethyl-5-(2-fluoro-4-methoxyphenyl)-2,3-dihydro-1H-pyrrolo[3,4-b]quinolin-1-one]	7.14	−0.008	0.036		
COc1cccc(F)c1-c1cccc2c(N)c3c(nc12)CN(C1CCCC1)C3=O [9-Amino-2-cyclopentyl-5-(2-fluoro-6-methoxyphenyl)-2,3-dihydropyrrolo[3,4-b]quinolin-1-one]	3.01	−0.01	0.3		
COc1cccc(F)c1-c1c(F)ccc2c(N)c3c(nc12)CN(C)C3=O [Example 70, 9-Amino-6-fluoro-5-(2-fluoro-6-methoxyphenyl)-2-methyl-2,3-dihydropyrrolo[3,4-b]quinolin-1-one]	8.11			0.02	0.16
COc1ccc(F)cc1-c1c(F)ccc2c(N)c3c(nc12)CN(C1CC1)C3=O [Example 61, 9-Amino-2-cyclopropyl-6-fluoro-5-(5-fluoro-2-methoxyphenyl)-2,3-dihydropyrrolo[3,4-b]quinolin-1-one]	7.4	0.08	0.23		
CCCN1Cc2nc3c(-c4cnccc4OC)cccc3c(N)c2C1=O [9-amino-5-(4-methoxypyridin-3-yl)-2-propyl-2,3-dihydro-1H-pyrrolo[3,4-b]quinolin-1-one]	39.2	0.39	0.62		
COc1ccc(F)c(-c2c(F)ccc3c(N)c4c(nc23)CN(C2CC2)C4=O)c1 [9-Amino-2-cyclopropyl-6-fluoro-5-(2-fluoro-5-methoxyphenyl)-2,3-dihydropyrrolo[3,4-b]quinolin-1-one]	7.54	0.002	0.15		
CCCN1Cc2nc3c(-c4cccc(C)c4)cccc3c(N)c2C1=O [9-amino-2-propyl-5-(3-methylphenyl)-2,3-dihydro-1H-pyrrolo[3,4-b]quinolin-1-one]	44.6	0.38	0.29		
CCCN1Cc2nc3c(-c4ccc(F)cc4OC)cccc3c(N)c2C1=O [9-amino-5-(4-fluoro-2-methoxyphenyl)-2-propyl-2,3-dihydro-1H-pyrrolo[3,4-b]quinolin-1-one]	60.8	0.2	0.2		
COc1cnc(OC)c(-c2cccc3c(N)c4c(nc23)CN(C2CCC2)C4=O)c1 [9-Amino-2-cyclobutyl-5-(2,5-dimethoxypyridin-3-yl)-2,3-dihydropyrrolo[3,4-b]quinolin-1-one]	3.35	0.087	0.47		
Cc1ccc(-c2cccc3c(N)c4c(nc23)CN(C2CCC2)C4=O)cn1 [9-Amino-2-cyclobutyl-5-(6-methylpyridin-3-yl)-2,3-dihydropyrrolo[3,4-b]quinolin-1-one]	4.44	−0.13	0.21		
COc1cccc(F)c1-c1cccc2c(N)c3c(nc12)CN(C)C3=O [Example 20, 9-Amino-5-(2-fluoro-6-methoxyphenyl)-2-methyl-2,3-dihydropyrrolo[3,4-b]quinolin-1-one]	18.8	0.046	0.26		
CCCN1Cc2nc3c(-c4cc(F)ccc4F)cccc3c(N)c2C1=O [9-amino-5-(2,5-difluorophenyl)-2-propyl-2,3-dihydro-1H-pyrrolo[3,4-b]quinolin-1-one]	34.8	0.21	0.33		
COc1ncc(-c2c(F)ccc3c(N)c4c(nc23)CN(C2CCC2)C4=O)c(OC)n1 [9-Amino-2-cyclobutyl-5-(2,4-dimethoxypyrimidin-5-yl)-6-fluoro-2,3-dihydropyrrolo[3,4-b]quinolin-1-one]	0.953	0.11	0.4		
N#Cc1ccccc1-c1cccc2c(N)c3c(nc12)CN(C1CCCC1)C3=O [2-(9-Amino-2-cyclopentyl-1-oxo-2,3-dihydro-1H-pyrrolo[3,4-b]quinolin-5-yl)-benzonitrile]	5.75	0.062	0.27		
COc1ncccc1-c1cccc2c(N)c3c(nc12)CN(C1CC1)C3=O [Example 66, 9-Amino-2-cyclopropyl-5-(2-methoxypyridin-3-yl)-2,3-dihydropyrrolo[3,4-b]quinolin-1-one]	35.1	0.056	0.33		
CCN1Cc2nc3c(-c4cc(Cl)ccc4OC)c(F)ccc3c(N)c2C1=O [9-Amino-5-(5-chloro-2-methoxyphenyl)-2-ethyl-6-fluoro-2,3-dihydropyrrolo[3,4-b]quinolin-1-one]	2.22	0.033	0.27		
N#Cc1ccc(-c2cccc3c(N)c4c(nc23)CN(C2CCC2)C4=O)cn1 [5-(9-Amino-2-cyclobutyl-1-oxo-2,3-dihydro-1H-pyrrolo[3,4-b]quinolin-5-yl)-pyridine-2-carbonitrile]	15.6	−0.038	0.17		
CCN1Cc2nc3c(-c4ccccc4OC)c(F)ccc3c(N)c2C1=O [Example 45, 9-Amino-2-ethyl-6-fluoro-5-(2-methoxyphenyl)-2,3-dihydropyrrolo[3,4-b]quinolin-1-one]	13.2	−0.11	0.26		
CCCN1Cc2nc3c(-c4cc(OC)ccc4F)cccc3c(N)c2C1=O [9-amino-5-(2-fluoro-5-methoxyphenyl)-2-propyl-2,3-dihydro-1H-pyrrolo[3,4-b]quinolin-1-one]	12.5	0.39	0.39		
COc1ccc(-c2cccc3c(N)c4c(nc23)CN(C2CCC2)C4=O)c(OC)n1 [Example 64, 9-Amino-2-cyclobutyl-5-(2,6-dimethoxypyridin-3-yl)-2,3-dihydropyrrolo[3,4-b]quinolin-1-one]	3.81	0.06	0.31		
